We go through 16 molecules from the SangsterLogP compilation.

What is called logP is the decadic logarithm of the partition coefficient of the neutral form, usually between octanol and water.

Molecule `CCCN(CCC)c1c([N+](=O)[O-])cc(C(F)(F)F)cc1[N+](=O)[O-]` showed a logP of 4.98. The molecule `CN(C)CCC=C1c2ccccc2COc2ccccc21` returned a logP of 3.75. With `CCCCOCCOCCOCc1cc2c(cc1CCC)OCO2`, the logP stood at 4.39. As for `CCOCn1c(-c2ccc(Cl)cc2)c(C#N)c(Br)c1C(F)(F)F`, the logP was 4.61. `C[C@H]1O[C@@H](O[C@H]2[C@@H](O)C[C@H](O[C@H]3[C@@H](O)C[C@H](O[C@H]4CC[C@@]5(C)[C@H](CC[C@@H]6[C@@H]5CC[C@]5(C)[C@@H](C7=CC(=O)OC7)CC[C@]65O)C4)O[C@@H]3C)O[C@@H]2C)C[C@H](O)[C@@H]1O` showed a logP of 3.42.

In the case of `CC(C)(C)c1ccc(CCOc2ncnc3ccccc23)cc1`, the logP was found to be 4.91.

`C=CCc1ccccc1OC[C@@H](O)CNC(C)C` had a logP of 2.63. Turning to `Oc1ccc(Oc2ccccc2)cc1`, the logP was 3.92.

The molecule `COP(=S)(OC)SCC(=O)N(c1ccc(Cl)cc1)C(C)C` had a logP of 3.8.

On to `CON=C1C[C@]2(C[C@@H]3C[C@@H](C/C=C(\C)C[C@@H](C)C=C/C=C4\CO[C@@H]5[C@H](O)C(C)=C[C@@H](C(=O)O3)[C@]45O)O2)O[C@H](/C(C)=C/C(C)C)[C@H]1C`, for which the logP is 4.99. As for `CO/C=C(/C(=O)OC)c1ccccc1Oc1cc(Oc2ccccc2C#N)ncn1`, the logP worked out at 2.97.

For `COc1ccc(-c2ccccc2)cc1NNC(=O)OC(C)C`, the logP worked out at 3.8. The value for `CC(C)C(C(=O)OC(C#N)c1cccc(Oc2ccccc2)c1)c1ccc(Cl)cc1` (stereo unspecified) was 5.71; that for `CC1=C(C(=O)Nc2ccccc2)S(=O)(=O)CCO1` was 1.13; that for `N#Cc1c[nH]cc1-c1cccc(Cl)c1Cl` was 3.78. With `CC(C)N(C(=O)COc1nnc(C(F)(F)F)s1)c1ccc(F)cc1`, the logP was determined as 3.19.
